We go through 100 compounds from PubChem BioAssay AID1552 (Sanford-Burnham Center for Chemical Genomics, 2009).

The source made the active and inactive calls. The rule behind the calls is not given here.

Ubiquitin-conjugating enzyme E2 N (Homo sapiens), sequence (P61088 whole entry, looked up): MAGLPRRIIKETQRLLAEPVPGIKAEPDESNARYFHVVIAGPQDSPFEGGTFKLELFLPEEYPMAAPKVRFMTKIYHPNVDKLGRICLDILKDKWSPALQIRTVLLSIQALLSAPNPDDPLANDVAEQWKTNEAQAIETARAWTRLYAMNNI

This experiment addresses Ubiquitin-conjugating enzyme E2 N (Homo sapiens) (UniProt P61088). In words: NMR detection of UBE2N ligand binding – biophysical, purified protein (AID 1552). As to conditions: NMR binding to purified UBE2N.
`O=C(Nc1ccon1)c1csc2ccccc12`: the Kd (commonly the concentration at which binding is half-saturated) was > 4 mM (inactive).
With `Fc1cccc(Cl)c1CN1CCCNCC1`, the Kd was > 4 mM (inactive).
Then `CC1CN(C(=O)c2ccncc2)CC(C)O1` (stereo not given), with > 4 mM (inactive); and `c1csc(-c2nn[nH]n2)c1`, with > 4 mM (inactive).
The same measure for `Cc1scc(C(=O)Nn2cnnc2)c1-c1ccccc1`: > 4 mM (inactive); for `CC(=O)NCC1OCCc2ccccc21` (stereo not given): > 4 mM (inactive); for `Cc1cc(Oc2ccccc2)nc(N)n1`: > 4 mM (inactive).
For the compound `NC1=NC(=O)/C(=C\c2ccco2)S1`, the Kd is > 4 mM (inactive).
Then `CCn1cnc2sc(C(=O)O)c(C)c2c1=O`, with > 4 mM (inactive); and `CC(=O)NC(=S)Nc1ccccc1C`, with > 4 mM (inactive); and `C[C@H]1C[C@@H](O)[C@]2(O)[C@@]13CC(=O)OC[C@@]2(C)[C@](C)(O)C(=O)C3`, with > 4 mM (inactive).
Then `NCc1nc2ccccc2s1`, with > 4 mM (inactive); and `CNC(=O)Cn1c(=O)n(C)c2ccccc21`, with > 4 mM (inactive).
As for `CC(=O)NCS(=O)(=O)c1ccc(C)cc1`, the Kd is > 4 mM (inactive).
Then `COCC(=O)Nc1c(C(N)=O)oc2ccccc12`, with > 4 mM (inactive); and `CC1(C)C(=O)CC[C@@]2(C)C1C[C@@H](O)[C@@]1(C)C3=CC(=O)O[C@@H](c4ccoc4)[C@]3(C)CCC21` (stereo not given in full), with > 4 mM (inactive); and `COc1ccccc1C(=O)Nc1ccccn1`, with > 4 mM (inactive).
Then `CC1=C2[C@H]3OC(=O)[C@@H](C)[C@@H]3CC[C@@]2(C)C=CC1=O`, with > 4 mM (inactive).
The same measure for `CN1CCC(N2CCCC(C(N)=O)C2)CC1` (stereo not given): > 4 mM (inactive); for `O=C(O)CCSc1nc2ccccc2s1`: > 4 mM (inactive).
`NS(=O)(=O)c1ccc(NC(=O)c2ccccc2F)cc1`: the Kd was > 4 mM (inactive).
The same measure for `OCc1ccc(-n2cncn2)cc1`: > 4 mM (inactive).
With `CCOC(=O)c1c(SC)nc(=O)[nH]c1C`, the Kd is > 4 mM (inactive).
Then `Nc1cc(=O)[nH]c(=S)n1-c1ccc(F)cc1`, with > 4 mM (inactive).
The same measure for `Nc1nc(=S)n2c(n1)oc1ccccc12`: > 4 mM (inactive).
On to `COC(=O)Cn1c2ccccc2c2nc(C)sc21`, for which the Kd is > 4 mM (inactive).
Then `CSc1ccc(C(=S)N2CCN(C)CC2)cc1`, with > 4 mM (inactive).
Then `CCCc1cc2c(c(NC(C)=O)n1)c(=O)oc1ccccc12`, with > 4 mM (inactive).
For the compound `COc1ccc2c(c1)CCCN2C(N)=O`, the Kd was > 4 mM (inactive).
In the case of `COc1cccc2c(=O)n(CC(N)=O)ccc12`, the Kd was > 4 mM (inactive).
Then `NC1=NC(=O)/C(=C\c2ccccc2)S1`, with > 4 mM (inactive); and `CC1=CCc2c(cc3oc(C)cc(=O)c3c2O)OC1`, with > 4 mM (inactive).
On to `OCc1nccn1Cc1ccccc1`, for which the Kd was > 4 mM (inactive).
Then `O=C(O)c1ccc(-c2cccs2)s1`, with > 4 mM (inactive); and `O=C(NCO)c1ccc([N+](=O)[O-])cc1`, with > 4 mM (inactive); and `CC(C)=CCc1c(O)cc2oc(C)cc(=O)c2c1O`, with > 4 mM (inactive).
Then `O=C(Nn1cnnc1)c1ccccc1Cl`, with > 4 mM (inactive).
With `CC(=O)O[C@@H]1C=C[C@@]2(C)C(C[C@@H](OC(C)=O)[C@@]3(C)C4=CC(=O)O[C@@H](c5ccoc5)[C@]4(C)CCC23)C1(C)C` (stereo not given in full), the Kd was > 4 mM (inactive).
As to `C=C1C(=O)O[C@@H]2C[C@@]3(C)CCC[C@H](C)C3=C[C@H]12`, the Kd was > 4 mM (inactive).
Then `CCC(C)C(=O)O[C@@H]1C[C@@]2(C)[C@H](c3ccoc3)OC(=O)CC23OC2(C)O[C@]14[C@]1(C)[C@@H](CC(=O)OC)C5(C)CC1(O)[C@](O)(C5OC(=O)C1(C)OC1C)[C@@H](OC(C)=O)[C@]34O2` (stereo not given in full), with > 4 mM (inactive); and `O=C(Nc1ccon1)c1ccc2c(c1)OCO2`, with > 4 mM (inactive); and `C/C=C(\C)c1nnc(NC(=O)c2ccco2)s1`, with > 4 mM (inactive).
With `C=C[C@H]1CN2CC[C@H]1C[C@@H]2[C@@H](O)c1ccnc2ccc(OC)cc12`, the Kd was > 4 mM (inactive).
On to `COC(=O)/C(C)=C\CC12OC(C)(C)C3CC(C=C4C(=O)c5c(OC)c6c(c(CC=C(C)C)c5OC431)OC(C)(CCC=C(C)C)C=C6)C2=O` (stereo not given), for which the Kd was > 4 mM (inactive).
In the case of `O=C(c1ccco1)N1CCCN(C(=O)c2ccco2)CC1`, the Kd is > 4 mM (inactive).
The same measure for `CC1(C)C(=O)C=C[C@@]2(C)C1CC(=O)[C@]1(C)C2CC[C@@]2(C)[C@H](c3ccoc3)OC(=O)[C@H]3O[C@]321` (stereo not given in full): > 4 mM (inactive).
Consider `O=c1[nH]cnc2nn(-c3ccccc3)nc12`, for which the Kd was > 4 mM (inactive).
Regarding `CC(C)(C(N)=O)/[N+]([O-])=C\c1ccccc1`, the Kd is > 4 mM (inactive).
Take `CCCNC(=O)CSc1ncccc1C(=O)O`: the Kd is > 4 mM (inactive).
The same measure for `NC(=O)c1ccc(N2CCCCC2)c(N)c1`: > 4 mM (inactive); for `O=C1CS/C(=N/S(=O)(=O)c2ccccc2)N1`: > 4 mM (inactive).
In the case of `COc1ccccc1-c1noc(-c2ccncc2)n1`, the Kd is > 4 mM (inactive).
The same measure for `Cc1cc(C(=O)Nc2sc(C)c(C)c2C#N)no1`: > 4 mM (inactive); for `Nc1ccc2c(c1)S(=O)(=O)C=C2`: > 4 mM (inactive).
Then `N#Cc1ccccc1CSc1ccccn1`, with > 4 mM (inactive).
For the compound `CCCCCC(=O)Cc1cc(O)cc(O)c1C(=O)Oc1cc(CC(=O)CCCCC)c(C(=O)O)c(OC)c1`, the Kd is > 4 mM (inactive).
Then `c1ccc(NCc2nc(-c3ccccc3)no2)cc1`, with > 4 mM (inactive); and `NCc1ccc(-n2cccn2)cc1`, with > 4 mM (inactive); and `Cc1cc(NC(=O)c2ocnc2C)no1`, with > 4 mM (inactive).
As for `CCOc1ccc(-c2c(=O)n(O)c3ccccc3[n+]2[O-])cc1`, the Kd is > 4 mM (inactive).
The same measure for `CC12CCC(O)CC1CCC1C2[C@H](O)CC2(C)C(C3=CC(=O)OC3)CCC12O` (stereo not given in full): > 4 mM (inactive); for `Brc1cccc(-c2nnco2)c1`: > 4 mM (inactive).
The same measure for `CCCOn1nnnc1-c1ccccc1`: > 4 mM (inactive).
As to `CCn1cnc(C(=O)NC)c1C(=O)NC`, the Kd is > 4 mM (inactive).
Then `CC(=O)NC12CC3CC(C)(C1)CC(NC(C)=O)(C3)C2`, with > 4 mM (inactive); and `O=C1CSC2=NCCCN12`, with > 4 mM (inactive).
As to `CC1(C)C2CC(=O)[C@]3(C)C(CC[C@@]4(C)[C@H](c5ccoc5)OC(=O)[C@H]5O[C@]543)[C@@]2(C)C=C[C@@H]1O` (stereo not given in full), the Kd was > 4 mM (inactive).
Then `Cc1nc2c(n1O)CCc1c-2no[n+]1[O-]`, with > 4 mM (inactive); and `NS(=O)(=O)c1ccc(NC(=S)NC2CC2)cc1`, with > 4 mM (inactive).
Then `O=C(NCc1ccccc1)c1cnsn1`, with > 4 mM (inactive).
Turning to `Cc1cc2ncc(C(=O)Nc3ccccc3)c(C)n2n1`, the Kd was > 4 mM (inactive).
The same measure for `CSc1ccccc1NC(=O)c1c(C)noc1C`: > 4 mM (inactive); for `O=c1[nH]c(N2CCOCC2)nc2ccccc12`: > 4 mM (inactive).
`Cc1ccc(C(=O)N2CC(=O)NC(=O)C2)cc1`: the Kd was > 4 mM (inactive).
The same measure for `CC12CC[C@H](CC1=O)C2(C)C`: > 4 mM (inactive); for `CNC(=O)C1=NCCCc2cc(OC)c(OC)cc21`: > 4 mM (inactive); for `Cc1ccc(N2C(=O)CC(=O)NC2=O)cc1`: > 4 mM (inactive).
In the case of `Cc1cc(C(=O)N2CCN(c3ncccn3)CC2)c(C)o1`, the Kd was > 4 mM (inactive).
On to `CC(=O)Nc1ccc(N2CCOCC2)cc1`, for which the Kd is > 4 mM (inactive).
Then `CC1CCN(C(=O)c2cc3ccccc3o2)CC1`, with > 4 mM (inactive); and `CC(CCC(=O)O)[C@H]1CCC2C3C[C@H](O)[C@@H]4C[C@H](O)CC[C@]4(C)C3CC[C@@]21C` (stereo not given in full), with > 4 mM (inactive).
The same measure for `O=C(Nc1nncs1)Oc1ccccc1`: > 4 mM (inactive); for `CC(=O)c1ccc(Cc2cnc(N)s2)cc1`: > 4 mM (inactive).
The same measure for `Cc1noc(-c2ccccc2)c1CO`: > 4 mM (inactive).
As for `Cc1c(N=CN2CCOCC2)c(=O)n(C)c(=O)n1C`, the Kd is > 4 mM (inactive).
The same measure for `CS(=O)(=O)NC1CCN(Cc2ccccc2)CC1`: > 4 mM (inactive); for `CC(=O)Nc1ccc(NC2SC(=O)NC2=O)cc1` (stereo not given): > 4 mM (inactive); for `O=C(Nc1nccs1)c1cccnc1`: > 4 mM (inactive).
`N#CCSc1nnc2ccc3ccccc3n12`: the Kd is > 4 mM (inactive).
Then `CCOC(=O)CNc1ncnc2c1nnn2CC`, with > 4 mM (inactive); and `CC(C)=CC1C(C(=O)O)C1(C)C` (stereo not given), with > 4 mM (inactive).
Then `COc1ccc2c(c1OC)C(=O)OC2[C@H]1c2c(cc3c(c2OC)OCO3)CCN1C` (stereo not given in full), with > 4 mM (inactive); and `CS(=O)(=O)c1cccc(C(=O)Nc2nccs2)c1`, with > 4 mM (inactive); and `O=NN1C(=O)c2ccccc2C1=O`, with > 4 mM (inactive).
For `Nc1nc(SCc2ccccc2)ns1`, the Kd is > 4 mM (inactive).
Take `COc1cc(C(=O)NCC2CCCO2)cc(OC)c1OC` (stereo not given): the Kd is > 4 mM (inactive).
The same measure for `Nc1ncnc(Nc2ccccc2C(F)(F)F)n1`: > 4 mM (inactive); for `CNc1nc(N)c(C(=O)C(C)(C)C)s1`: > 4 mM (inactive); for `O=S(=O)(c1cccc(Cl)c1)N1CCCC1`: > 4 mM (inactive).
The same measure for `Cc1cc(=O)oc2cc3c(cc12)OCCO3`: > 4 mM (inactive).
